Test results taken from patent US8119805B2, “Substituted disulfonamide compounds” (Gruenenthal GmbH, priority 2008, dated 2012).
Counter-ions that a name gives are not always drawn.

Legend:
[1] = target: T1, human B1R receptor (hB1R) (Homo sapiens, UniProt P46663); experiment: Functional investigation on the bradykinin 1 receptor (B1R), FLIPR Ca2+ assay, hB1R cells; format: cell-based; conditions: test substance 10 μM; CHO K1 cells transfected with human B1R gene; Fluo-4 Ca2+ signal; agonist Lys-Des-Arg9-bradykinin at EC80; % of maximum achievable inhibition; read-out: B1R antagonism, human [10 μM] % inhibition
T1 construct: expressed in transfected cells; host or cells: CHO K1 cells
T1 sequence (P46663 1-353): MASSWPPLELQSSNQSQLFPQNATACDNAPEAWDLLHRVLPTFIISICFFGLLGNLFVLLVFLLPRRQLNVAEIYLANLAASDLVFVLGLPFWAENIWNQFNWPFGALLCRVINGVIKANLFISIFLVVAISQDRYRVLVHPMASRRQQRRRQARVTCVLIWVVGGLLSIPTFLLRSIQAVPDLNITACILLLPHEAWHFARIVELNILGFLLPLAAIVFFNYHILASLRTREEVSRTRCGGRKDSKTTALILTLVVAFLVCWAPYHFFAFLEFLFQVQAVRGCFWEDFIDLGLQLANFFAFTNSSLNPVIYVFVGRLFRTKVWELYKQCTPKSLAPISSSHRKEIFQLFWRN
Protocol: (§1) The agonistic or antagonistic action of substances on the bradykinin 1 receptor (B1R) of the human and rat species can be quantified with ectopically expressing cell lines (CHO K1 cells) and with the aid of a Ca^2+-sensitive dyestuff (Fluo-4) in a fluorescent imaging plate reader (FLIPR). The value in % activation is based on the Ca^2+ signal after addition of Lys-Des-[…]-bradykinin (0.5 nM) or Des-[…]-bradykinin (100 nM). Antagonists lead to a suppression of the Ca^2+inflow after addition of the agonist. % inhibition compared with the maximum achievable inhibition is stated. The agonistic or antagonistic action of substances on the bradykinin 1 receptor (B1R) of the human and rat species can be determined with the following assay. In accordance with this assay, the Ca^2+ inflow through the channel is quantified with the aid of a Ca^2+-sensitive dyestuff (type Fluo-4, Molecular Probes Europe BV, Leiden, Holland) in a fluorescent imaging plate reader (FLIPR, Molecular Devices, Sunnyvale, USA). Chinese hamster ovary cells (CHO K1 cells) transfected stably with the human B1R gene (hB1R cells) or the B1R gene of the rat (rB1R cells) are used. For functional studies, these cells are plated out on black 96-well plates with a clear base (BD Biosciences, Heidelberg, Germany or Greiner, Frickenhausen, Germany) in a density of 20,000-35,000 cells/well. The cells are left overnight at 37° C. and 5% CO2 in culture medium (hB1R cells: Nutrient Mixture Ham's F12, Gibco Invitrogen GmbH, Karlsruhe, Germany or DMEM, Sigma-Aldrich, Taufkirchen, Germany; rB1R cells: D-MEM/F12, Gibco Invitrogen GmbH, Karlsruhe, Germany) with 10 vol. % FBS (foetal bovine serum, Gibco Invitrogen GmbH, Karlsruhe, Germany or PAN Biotech GmbH, Aidenbach, Germany). On the following day, the cells are loaded for 60 min at 37° C. with 2.13 μM Fluo-4 (Molecular Probes Europe BV, Leiden Holland) in HBSS buffer (Hank's buffered saline solution, Gibco Invitrogen GmbH, Karlsruhe, Germany) with 2.5 mM probenecid (Sigma-Aldrich, Taufkirchen, Germany) and 10 mM HEPES (Sigma-Aldrich, Taufkirchen, Germany). The plates are then washed 2× with HBSS buffer, and HBSS buffer which additionally contains 0.1% BSA (bovine serum albumin; Sigma-Aldrich, Taufkirchen, Germany), 5.6 mM glucose and 0.05% gelatine (Merck KGaA, Darmstadt, Germany) is added. After a further incubation of 20 minutes at room temperature, the plates are inserted into the FLIPR for the Ca^2+ measurement. Alternatively, the plates are washed with buffer A (15 mM HEPES, 80 mM NaCl, 5 mM KCl, 1.2 mM CaCl2, 0.7 mM MgSO4, 2 g/l glucose, 2.5 mM probenecid), buffer A is added and the plates are loaded with 2.5 μM Fluo-4 and 0.025% Pluronic F127 (Sigma-Aldrich, Taufkirchen, Germany). Thereafter, the cells are washed 2× with buffer A and incubated for 30 minutes at room temperature with buffer A, which additionally contains 0.05% BSA and 0.05% gelatine, and thereafter inserted into the FLIPR for the Ca^2+ measurement. The Ca^2+-dependent fluorescence is measured here before and after addition of substances (λex=488 nm, λem=540 nm). Quantification is by measurement of the highest fluorescence intensity (FC, fluorescence counts) over time. The FLIPR protocol consists of 2 additions of substance. Test substances (10 μM) are first pipetted on to the cells and the Ca^2+ inflow is compared with the control (hB1R: Lys-Des-[…]-bradykinin>=50 nM; rB1R: Des-[…]-bradykinin 10 μM). This gives the result in % activation based on the Ca^2+ signal after addition of Lys-Des-[…]-bradykinin (>=50 nM) or Des-[…]-bradykinin (10 μM). After incubation for 10-20 minutes, Lys-Des-[…]-bradykinin (hB1R) or Des-[…]-bradykinin (rB1R) at the EC80 concentration is applied and the inflow of Ca^2+ is likewise determined. Antagonists lead to a suppression of the Ca^2+ inflow. The percent inhibition compared to the maximum achievable inhibition is calculated. In order to determine the IC50 value, the substances are added in various concentrations. […]

[2] = target: T2, B1R receptor of the rat (rB1R) (Rattus norvegicus, UniProt P97583); experiment: Functional investigation on the bradykinin 1 receptor (B1R), FLIPR Ca2+ assay, rB1R cells; format: cell-based; conditions: test substance 10 μM; CHO K1 cells transfected with rat B1R gene; Fluo-4 Ca2+ signal; agonist Des-Arg9-bradykinin at EC80; % of maximum achievable inhibition; read-out: B1R antagonism, rat [10 μM] % inhibition
T2 construct: expressed in transfected cells; host or cells: CHO K1 cells
T2 sequence (P97583 1-337): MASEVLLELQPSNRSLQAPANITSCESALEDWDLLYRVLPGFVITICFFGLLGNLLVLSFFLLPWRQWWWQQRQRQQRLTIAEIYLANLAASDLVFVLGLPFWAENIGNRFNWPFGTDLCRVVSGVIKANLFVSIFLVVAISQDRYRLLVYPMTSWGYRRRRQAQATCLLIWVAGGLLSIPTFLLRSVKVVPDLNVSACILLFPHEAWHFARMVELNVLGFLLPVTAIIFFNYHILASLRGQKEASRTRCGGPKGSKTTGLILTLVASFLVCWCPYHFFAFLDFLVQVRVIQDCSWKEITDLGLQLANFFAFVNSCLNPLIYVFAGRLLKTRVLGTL
Protocol: as §1

Row | SMILES | inhibition at 10 µM [1] [%] | inhibition at 10 µM [2] [%]
1 | Cc1cc(C)c(S(=O)(=O)N2CCCC2CCCCS(=O)(=O)N2CCN(C3CCN(C)CC3)CC2)c(C)c1 (centres unmarked) [Example 42, 1-(4-(1-(Mesitylsulfonyl)pyrrolidin-2-yl)butylsulfonyl)-4-(1-methylpiperidin-4-yl)piperazine dihydrochloride] | 50 | 26
2 | Cc1cc(C)c(S(=O)(=O)N2CCCC(CCCS(=O)(=O)N3CCC(CCN4CCCC4)CC3)C2)c(C)c1 (centres unmarked) [Example 11, 1-(Mesitylsulfonyl)-3-(3-(4-(2-(pyrrolidin-1-yl)ethyl)piperidin-1-ylsulfonyl)propyl)piperidine hydrochloride] | 65 | 26
3 | Cc1cc(C)c(S(=O)(=O)N2CCC[C@@H]2CCCS(=O)(=O)N2CCN(C3CCN(C)CC3)CC2)c(C)c1 [Example 41, (R)-1-(3-(1-(Mesitylsulfonyl)pyrrolidin-2-yl)propylsulfonyl)-4-(1-methylpiperidin-4-yl)piperazine dihydrochloride] | 50 | 7
4 | COc1cc(C)c(S(=O)(=O)N2CCC(CCS(=O)(=O)N3CCC(CCN4CCCC4)CC3)C2)c(C)c1 (centres unmarked) [Example 25, 1-(2-(1-(4-Methoxy-2,6-dimethylphenylsulfonyl)pyrrolidin-3-yl)ethylsulfonyl)-4-(2-(pyrrolidin-1-yl)ethyl)piperidine hydrochloride] | 103 | 90
5 | Cc1cc(S(=O)(=O)N2CCC(CCS(=O)(=O)N3CCN(Cc4cccc(C#N)c4)CC3)C2)c(C)cc1Cl (centres unmarked) [Example 43, 3-((4-(2-(1-(4-Chloro-2,5-dimethylphenylsulfonyl)pyrrolidin-3-yl)ethylsulfonyl)piperazin-1-yl)methyl)benzonitrile hydrochloride] | 11 | 50
6 | Cc1cc(S(=O)(=O)N2CCC(CCS(=O)(=O)N3CCC(CCN4CCCC4)CC3)C2)c(C)cc1Cl (centres unmarked) [Example 19, 1-(2-(1-(4-Chloro-2,5-dimethylphenylsulfonyl)pyrrolidin-3-yl)ethylsulfonyl)-4-(2-(pyrrolidin-1-yl)ethyl)piperidine] | 77 | 13
7 | COc1cc(C)c(S(=O)(=O)N2CCCC(CCS(=O)(=O)N3CCC(CCN4CCCC4)CC3)C2)c(C)c1C (centres unmarked) [Example 39, 1-(4-Methoxy-2,3,6-trimethylphenylsulfonyl)-3-(2-(4-(2-(pyrrolidin-1-yl)ethyl)piperidin-1-ylsulfonyl)ethyl)piperidine hydrochloride] | 44 | 27
8 | Cc1cccc(Cl)c1S(=O)(=O)N1CCC[C@H]1CCCS(=O)(=O)N1CC(N2[C@@H]3CC[C@H]2C[C@H](Oc2ccncc2)C3)C1 [Example 81, (1R,3s,5S)-8-(1-(3-((S)-1-(2-Chloro-6-methylphenylsulfonyl)pyrrolidin-2-yl)propylsulfonyl)azetidin-3-yl)-3-(pyridin-4-yloxy)-8-azabicyclo[3.2.1]octane] | 96 | 98

Other lines, results leading:

Row | inhibition at 10 µM [1] [%] | inhibition at 10 µM [2] [%] | SMILES
9 | 102 | 84 | O=S(=O)(CCC[C@H]1CCCN1S(=O)(=O)c1ccc2ccccc2c1)N1CCN(c2ccncc2)CC1 [Example 2, (R)-1-(3-(1-(Naphthalen-2-ylsulfonyl)pyrrolidin-2-yl)propylsulfonyl)-4-(pyridin-4-yl)piperazine hydrochloride]
10 | 80 | 99 | Cc1cccc(Cl)c1S(=O)(=O)N1CCC[C@H]1CCCS(=O)(=O)N1CCC(Oc2ccncc2)CC1 [Example 46, (S)-4-(1-(3-(1-(2-Chloro-6-methylphenylsulfonyl)pyrrolidin-2-yl)propylsulfonyl)piperidin-4-yloxy)pyridine]
11 | 84 | 104 | Cc1cccc(Cl)c1S(=O)(=O)N1CCC[C@H]1CCCS(=O)(=O)N1CCC2(CCC(Oc3ccncc3)CC2)CC1 [Example 62, 3-(3-((S)-1-(2-Chloro-6-methylphenylsulfonyl)pyrrolidin-2-yl)propylsulfonyl)-9-(pyridin-4-yloxy)-3-azaspiro[5.5]undecane]
12 | 99 | 101 | COc1cc(C)c(S(=O)(=O)N2CCC[C@H]2CCCS(=O)(=O)N2CCC3(CCN(c4ccncc4)CC3)C2)c(C)c1 [Example 85, (S)-2-(3-(1-(4-Methoxy-2,6-dimethylphenylsulfonyl)pyrrolidin-2-yl)propylsulfonyl)-8-(pyridin-4-yl)-2,8-diazaspiro[4.5]decane]
13 | 99 | 95 | COc1cc(C)c(S(=O)(=O)N2CCCCC2CCCS(=O)(=O)N2CCC3(CCN(c4ccncc4)CC3)CC2)c(C)c1 (centres unmarked) [Example 74, 3-(3-(1-(4-Methoxy-2,6-dimethylphenylsulfonyl)piperidin-2-yl)propylsulfonyl)-9-(pyridin-4-yl)-3,9-diazaspiro[5.5]undecane]
14 | 62 | 33 | O=S(=O)(CCC1CCN(S(=O)(=O)c2ccc(Cl)c(Cl)c2)C1)N1CCN(c2ccncc2)CC1 (centres unmarked) [Example 24, 1-(2-(1-(3,4-Dichlorophenylsulfonyl)pyrrolidin-3-yl)ethylsulfonyl)-4-(pyridin-4-yl)piperazine hydrochloride]
15 | 76 | 13 | Cc1cc(C)c(S(=O)(=O)N2CC[C@@H]2CCCS(=O)(=O)N2CCC(CCN3CCCC3)CC2)c(C)c1 [Example 4, (S)-1-(3-(1-(Mesitylsulfonyl)azetidin-2-yl)propylsulfonyl)-4-(2-(pyrrolidin-1-yl)ethyl)piperidine hydrochloride]
16 | 96 | 82 | COc1cc(C)c(S(=O)(=O)N2CCC[C@H]2CCCS(=O)(=O)N2CCC3(CCN(c4ccncc4)C3)C2)cc1C (stereo partly drawn) [Example 84, 2-(3-((S)-1-(4-Methoxy-2,5-dimethylphenylsulfonyl)pyrrolidin-2-yl)propylsulfonyl)-7-(pyridin-4-yl)-2,7-diazaspiro[4.4]nonane]
